Tested on: Mitochondria-located protein genes
Test: DNA chip mRNA expression in yeast, mitochondria-located protein genes (Table 2)
Assay type: cell-based, Saccharomyces cerevisiae S288C
Details: cells incubated two hours with the chemical substance
Procedure, shortened: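 Expression change after 2 h toxicant exposure (growth-inhibiting, sub-lethal) of log-phase S. cerevisiae S288C at 25° C. Oligo-dT-purified mRNA was labeled with Cy3-dUTP or Cy5-dUTP and hybridized >12 h at 65° C. to a genome-wide chip; ratio of scanned fluorescence to control.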

## O=[N+]([O-])c1cc[n+]([O-])c2ccccc12 [(5), 4-nitroquinolin-N-oxide]
Yeast gene YAL039C
  The level of expressed mRNA in the presence of chemical substance/The level of expressed mRNA in the absence of chemical substance: 1.1
Yeast gene YBL022C
  The level of expressed mRNA in the presence of chemical substance/The level of expressed mRNA in the absence of chemical substance: 1.2
Yeast gene YBL030C
  The level of expressed mRNA in the presence of chemical substance/The level of expressed mRNA in the absence of chemical substance: 0.7
Yeast gene YBL038W
  The level of expressed mRNA in the presence of chemical substance/The level of expressed mRNA in the absence of chemical substance: 0.9
Yeast gene YBL099W
  The level of expressed mRNA in the presence of chemical substance/The level of expressed mRNA in the absence of chemical substance: 1.0
Yeast gene YBR003W
  The level of expressed mRNA in the presence of chemical substance/The level of expressed mRNA in the absence of chemical substance: 0.7
Yeast gene YBR044C
  The level of expressed mRNA in the presence of chemical substance/The level of expressed mRNA in the absence of chemical substance: 1.4
Yeast gene YBR091C
  The level of expressed mRNA in the presence of chemical substance/The level of expressed mRNA in the absence of chemical substance: 1.1
Yeast gene YBR122C
  The level of expressed mRNA in the presence of chemical substance/The level of expressed mRNA in the absence of chemical substance: 1.5
Yeast gene YBR185C
  The level of expressed mRNA in the presence of chemical substance/The level of expressed mRNA in the absence of chemical substance: 0.8
Yeast gene YBR221C
  The level of expressed mRNA in the presence of chemical substance/The level of expressed mRNA in the absence of chemical substance: 1.3
Yeast gene YBR251W
  The level of expressed mRNA in the presence of chemical substance/The level of expressed mRNA in the absence of chemical substance: 1.3
Yeast gene YBR282W
  The level of expressed mRNA in the presence of chemical substance/The level of expressed mRNA in the absence of chemical substance: 1.0
Yeast gene YCL057W
  The level of expressed mRNA in the presence of chemical substance/The level of expressed mRNA in the absence of chemical substance: 1.1
Yeast gene YCR046C
  The level of expressed mRNA in the presence of chemical substance/The level of expressed mRNA in the absence of chemical substance: 1.0
Yeast gene YCR083W
  The level of expressed mRNA in the presence of chemical substance/The level of expressed mRNA in the absence of chemical substance: 1.6
Yeast gene YDL067C
  The level of expressed mRNA in the presence of chemical substance/The level of expressed mRNA in the absence of chemical substance: 2.0
Yeast gene YDL181W
  The level of expressed mRNA in the presence of chemical substance/The level of expressed mRNA in the absence of chemical substance: 1.7
Yeast gene YDL198C
  The level of expressed mRNA in the presence of chemical substance/The level of expressed mRNA in the absence of chemical substance: 0.7
Yeast gene YDR079W
  The level of expressed mRNA in the presence of chemical substance/The level of expressed mRNA in the absence of chemical substance: 1.2
Yeast gene YDR178W
  The level of expressed mRNA in the presence of chemical substance/The level of expressed mRNA in the absence of chemical substance: 0.9
Yeast gene YDR231C
  The level of expressed mRNA in the presence of chemical substance/The level of expressed mRNA in the absence of chemical substance: 1.1
Yeast gene YDR258C
  The level of expressed mRNA in the presence of chemical substance/The level of expressed mRNA in the absence of chemical substance: 1.3
Yeast gene YDR298C
  The level of expressed mRNA in the presence of chemical substance/The level of expressed mRNA in the absence of chemical substance: 1.3
Yeast gene YDR347W
  The level of expressed mRNA in the presence of chemical substance/The level of expressed mRNA in the absence of chemical substance: 0.8
Yeast gene YDR377W
  The level of expressed mRNA in the presence of chemical substance/The level of expressed mRNA in the absence of chemical substance: 1.9
Yeast gene YDR529C
  The level of expressed mRNA in the presence of chemical substance/The level of expressed mRNA in the absence of chemical substance: 1.2
Yeast gene YEL024W
  The level of expressed mRNA in the presence of chemical substance/The level of expressed mRNA in the absence of chemical substance: 1.3
Yeast gene YEL039C
  The level of expressed mRNA in the presence of chemical substance/The level of expressed mRNA in the absence of chemical substance: 0.9
Yeast gene YER178W
  The level of expressed mRNA in the presence of chemical substance/The level of expressed mRNA in the absence of chemical substance: 0.7
Yeast gene YFL016C
  The level of expressed mRNA in the presence of chemical substance/The level of expressed mRNA in the absence of chemical substance: 1.3
Yeast gene YGL018C
  The level of expressed mRNA in the presence of chemical substance/The level of expressed mRNA in the absence of chemical substance: 1.1
Yeast gene YGL187C
  The level of expressed mRNA in the presence of chemical substance/The level of expressed mRNA in the absence of chemical substance: 1.3
Yeast gene YGL191W
  The level of expressed mRNA in the presence of chemical substance/The level of expressed mRNA in the absence of chemical substance: 0.9
Yeast gene YGR008C
  The level of expressed mRNA in the presence of chemical substance/The level of expressed mRNA in the absence of chemical substance: 0.9
Yeast gene YGR028W
  The level of expressed mRNA in the presence of chemical substance/The level of expressed mRNA in the absence of chemical substance: 0.9
Yeast gene YGR062C
  The level of expressed mRNA in the presence of chemical substance/The level of expressed mRNA in the absence of chemical substance: 0.7
Yeast gene YGR076C
  The level of expressed mRNA in the presence of chemical substance/The level of expressed mRNA in the absence of chemical substance: 0.9
Yeast gene YGR082W
  The level of expressed mRNA in the presence of chemical substance/The level of expressed mRNA in the absence of chemical substance: 0.9
Yeast gene YGR174C
  The level of expressed mRNA in the presence of chemical substance/The level of expressed mRNA in the absence of chemical substance: 1.0
Yeast gene YGR244C
  The level of expressed mRNA in the presence of chemical substance/The level of expressed mRNA in the absence of chemical substance: 0.8
Yeast gene YHR008C
  The level of expressed mRNA in the presence of chemical substance/The level of expressed mRNA in the absence of chemical substance: 0.6
Yeast gene YIL155C
  The level of expressed mRNA in the presence of chemical substance/The level of expressed mRNA in the absence of chemical substance: 1.3
Yeast gene YJL096W
  The level of expressed mRNA in the presence of chemical substance/The level of expressed mRNA in the absence of chemical substance: 1.9
Yeast gene YJL102W
  The level of expressed mRNA in the presence of chemical substance/The level of expressed mRNA in the absence of chemical substance: 1.3
Yeast gene YJL133W
  The level of expressed mRNA in the presence of chemical substance/The level of expressed mRNA in the absence of chemical substance: 0.9
Yeast gene YJL166W
  The level of expressed mRNA in the presence of chemical substance/The level of expressed mRNA in the absence of chemical substance: 1.6
Yeast gene YJL180C
  The level of expressed mRNA in the presence of chemical substance/The level of expressed mRNA in the absence of chemical substance: 1.5
Yeast gene YJR045C
  The level of expressed mRNA in the presence of chemical substance/The level of expressed mRNA in the absence of chemical substance: 0.5
Yeast gene YJR077C
  The level of expressed mRNA in the presence of chemical substance/The level of expressed mRNA in the absence of chemical substance: 0.9

Reference: patent US8192962B2, “Processes for detecting toxic substances” (Daikin Industries, Ltd., priority 2001, dated 2012)
